What was measured:
Test in all cases: Kinase panel profiling
Format in all cases: biochemical
Conditions in all cases: 10 μM ATP
ACK1 = target: T1, ACK1 (Homo sapiens, UniProt Q07912)
T1 construct: purchased Reaction Biology Corp
Experimental: (§1) Kinase panel profiling was conducted by Reaction Biology Corp. (San Diego, CA, USA). A single dose (1.0 μM) of 6r was tested against 371 recombinant human kinases in the presence of 10 μM ATP.

BLK = target: T2, BLK (Homo sapiens, UniProt P51451)
T2 construct: purchased Reaction Biology Corp
Experimental: as §1

BRAF = target: T3, BRAF (Homo sapiens, UniProt P15056)
T3 construct: purchased Reaction Biology Corp
Experimental: as §1

BRK = target: T4, BRK (Homo sapiens, UniProt Q13882)
T4 construct: purchased Reaction Biology Corp
Experimental: as §1

CAMK2b = target: T5, CAMK2b (Homo sapiens, UniProt Q13554)
T5 construct: purchased Reaction Biology Corp
Experimental: as §1

CDK1/cyclin A = target: T6, CDK1/cyclin A (Homo sapiens, UniProt P06493)
T6 construct: purchased Reaction Biology Corp
Experimental: as §1

DYRK4 = target: T7, DYRK4 (Homo sapiens, UniProt Q9NR20)
T7 construct: purchased Reaction Biology Corp
Experimental: as §1

EPHA2 = target: T8, EPHA2 (Homo sapiens, UniProt P29317)
T8 construct: purchased Reaction Biology Corp
Experimental: as §1

EPHB3 = target: T9, EPHB3 (Homo sapiens, UniProt P54753)
T9 construct: purchased Reaction Biology Corp
Experimental: as §1

ERK2/MAPK1 = target: T10, ERK2/MAPK1 (Homo sapiens, UniProt P28482)
T10 construct: purchased Reaction Biology Corp
Experimental: as §1

ERK7/MAPK15 = target: T11, ERK7/MAPK15 (Homo sapiens, UniProt Q8TD08)
T11 construct: purchased Reaction Biology Corp
Experimental: as §1

FAK/PTK2 = target: T12, FAK/PTK2 (Homo sapiens, UniProt Q05397)
T12 construct: purchased Reaction Biology Corp
Experimental: as §1

FER = target: T13, FER (Homo sapiens, UniProt P16591)
T13 construct: purchased Reaction Biology Corp
Experimental: as §1

FES/FPS = target: T14, FES/FPS (Homo sapiens, UniProt P07332)
T14 construct: purchased Reaction Biology Corp
Experimental: as §1

FGFR3 = target: T15, FGFR3 (Homo sapiens, UniProt P22607)
T15 construct: purchased Reaction Biology Corp
Experimental: as §1

GRK5 = target: T16, GRK5 (Homo sapiens, UniProt P34947)
T16 construct: purchased Reaction Biology Corp
Experimental: as §1

HIPK1 = target: T17, HIPK1 (Homo sapiens, UniProt Q86Z02)
T17 construct: purchased Reaction Biology Corp
Experimental: as §1

IRAK4 = target: T18, IRAK4 (Homo sapiens, UniProt Q9NWZ3)
T18 construct: purchased Reaction Biology Corp
Experimental: as §1

LIMK2 = target: T19, LIMK2 (Homo sapiens, UniProt P53671)
T19 construct: purchased Reaction Biology Corp
Experimental: as §1

LOK/STK10 = target: T20, LOK/STK10 (Homo sapiens, UniProt O94804)
T20 construct: purchased Reaction Biology Corp
Experimental: as §1

MARK2/PAR-1Ba = target: T21, MARK2/PAR-1Ba (Homo sapiens, UniProt Q7KZI7)
T21 construct: purchased Reaction Biology Corp
Experimental: as §1

MKK7 = target: T22, MKK7 (Homo sapiens, UniProt O14733)
T22 construct: purchased Reaction Biology Corp
Experimental: as §1

MLCK2/MYLK2 = target: T23, MLCK2/MYLK2 (Homo sapiens, UniProt Q9H1R3)
T23 construct: purchased Reaction Biology Corp
Experimental: as §1

MLK1/MAP3K9 = target: T24, MLK1/MAP3K9 (Homo sapiens, UniProt P80192)
T24 construct: purchased Reaction Biology Corp
Experimental: as §1

MLK2/MAP3K10 = target: T25, MLK2/MAP3K10 (Homo sapiens, UniProt Q02779)
T25 construct: purchased Reaction Biology Corp
Experimental: as §1

MYLK4 = target: T26, MYLK4 (Homo sapiens, UniProt Q86YV6)
T26 construct: purchased Reaction Biology Corp
Experimental: as §1

MYO3A = target: T27, MYO3A (Homo sapiens, UniProt Q8NEV4)
T27 construct: purchased Reaction Biology Corp
Experimental: as §1

NEK1 = target: T28, NEK1 (Homo sapiens, UniProt Q96PY6)
T28 construct: purchased Reaction Biology Corp
Experimental: as §1

NEK11 = target: T29, NEK11 (Homo sapiens, UniProt Q8NG66)
T29 construct: purchased Reaction Biology Corp
Experimental: as §1

PHKg1 = target: T30, PHKg1 (Homo sapiens, UniProt Q16816)
T30 construct: purchased Reaction Biology Corp
Experimental: as §1

PKAcg = target: T31, PKAcg (Homo sapiens, UniProt P22612)
T31 construct: purchased Reaction Biology Corp
Experimental: as §1

PKCb2 = target: T32, PKCb2 (Homo sapiens, UniProt P05771)
T32 construct: purchased Reaction Biology Corp
Experimental: as §1

RSK2 = target: T33, RSK2 (Homo sapiens, UniProt P51812)
T33 construct: purchased Reaction Biology Corp
Experimental: as §1

SGK1 = target: T34, SGK1 (Homo sapiens, UniProt O00141)
T34 construct: purchased Reaction Biology Corp
Experimental: as §1

SRPK2 = target: T35, SRPK2 (Homo sapiens, UniProt P78362)
T35 construct: purchased Reaction Biology Corp
Experimental: as §1

STK32B/YANK2 = target: T36, STK32B/YANK2 (Homo sapiens, UniProt Q9NY57)
T36 construct: purchased Reaction Biology Corp
Experimental: as §1

TESK2 = target: T37, TESK2 (Homo sapiens, UniProt Q96S53)
T37 construct: purchased Reaction Biology Corp
Experimental: as §1

TIE2/TEK = target: T38, TIE2/TEK (Homo sapiens, UniProt Q02763)
T38 construct: purchased Reaction Biology Corp
Experimental: as §1

TNK1 = target: T39, TNK1 (Homo sapiens, UniProt Q13470)
T39 construct: purchased Reaction Biology Corp
Experimental: as §1

TTBK1 = target: T40, TTBK1 (Homo sapiens, UniProt Q5TCY1)
T40 construct: purchased Reaction Biology Corp
Experimental: as §1

TYRO3/SKY = target: T41, TYRO3/SKY (Homo sapiens, UniProt Q06418)
T41 construct: purchased Reaction Biology Corp
Experimental: as §1

VRK1 = target: T42, VRK1 (Homo sapiens, UniProt Q99986)
T42 construct: purchased Reaction Biology Corp
Experimental: as §1

T35 sequence (P78362 whole entry): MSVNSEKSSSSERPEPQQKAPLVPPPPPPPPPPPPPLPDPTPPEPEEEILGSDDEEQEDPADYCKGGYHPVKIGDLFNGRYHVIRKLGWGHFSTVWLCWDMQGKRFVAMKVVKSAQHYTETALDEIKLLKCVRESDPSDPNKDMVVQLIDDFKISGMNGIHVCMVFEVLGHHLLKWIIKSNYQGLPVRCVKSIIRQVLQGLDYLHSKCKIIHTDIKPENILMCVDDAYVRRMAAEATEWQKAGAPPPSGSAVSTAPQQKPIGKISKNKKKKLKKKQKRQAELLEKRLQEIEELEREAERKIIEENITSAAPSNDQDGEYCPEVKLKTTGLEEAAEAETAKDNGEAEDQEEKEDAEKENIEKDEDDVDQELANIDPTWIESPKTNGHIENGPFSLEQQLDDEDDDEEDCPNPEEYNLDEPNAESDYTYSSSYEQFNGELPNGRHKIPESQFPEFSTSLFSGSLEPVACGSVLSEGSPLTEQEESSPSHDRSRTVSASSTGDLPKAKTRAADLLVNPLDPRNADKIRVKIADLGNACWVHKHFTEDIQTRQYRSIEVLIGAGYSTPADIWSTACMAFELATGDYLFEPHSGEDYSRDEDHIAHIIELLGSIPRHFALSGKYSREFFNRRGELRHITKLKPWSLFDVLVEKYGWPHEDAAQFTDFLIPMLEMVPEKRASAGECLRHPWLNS
T29 sequence (Q8NG66 whole entry): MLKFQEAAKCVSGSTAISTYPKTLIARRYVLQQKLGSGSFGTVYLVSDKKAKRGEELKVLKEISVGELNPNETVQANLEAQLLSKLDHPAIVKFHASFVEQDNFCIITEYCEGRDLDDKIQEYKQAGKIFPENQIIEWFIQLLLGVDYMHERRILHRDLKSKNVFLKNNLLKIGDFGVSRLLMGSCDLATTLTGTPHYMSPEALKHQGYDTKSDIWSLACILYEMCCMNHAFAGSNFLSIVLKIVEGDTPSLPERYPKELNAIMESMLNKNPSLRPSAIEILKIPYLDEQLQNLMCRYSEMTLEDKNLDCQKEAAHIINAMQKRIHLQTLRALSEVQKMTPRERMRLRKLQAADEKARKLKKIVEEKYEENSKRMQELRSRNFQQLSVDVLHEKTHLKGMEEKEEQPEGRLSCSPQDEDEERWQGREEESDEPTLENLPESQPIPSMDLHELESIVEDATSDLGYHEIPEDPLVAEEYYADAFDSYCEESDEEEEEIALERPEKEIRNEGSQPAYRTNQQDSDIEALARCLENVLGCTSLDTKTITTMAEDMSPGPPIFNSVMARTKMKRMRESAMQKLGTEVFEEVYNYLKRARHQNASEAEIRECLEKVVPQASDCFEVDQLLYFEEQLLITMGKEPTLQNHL
T27 sequence (Q8NEV4 whole entry): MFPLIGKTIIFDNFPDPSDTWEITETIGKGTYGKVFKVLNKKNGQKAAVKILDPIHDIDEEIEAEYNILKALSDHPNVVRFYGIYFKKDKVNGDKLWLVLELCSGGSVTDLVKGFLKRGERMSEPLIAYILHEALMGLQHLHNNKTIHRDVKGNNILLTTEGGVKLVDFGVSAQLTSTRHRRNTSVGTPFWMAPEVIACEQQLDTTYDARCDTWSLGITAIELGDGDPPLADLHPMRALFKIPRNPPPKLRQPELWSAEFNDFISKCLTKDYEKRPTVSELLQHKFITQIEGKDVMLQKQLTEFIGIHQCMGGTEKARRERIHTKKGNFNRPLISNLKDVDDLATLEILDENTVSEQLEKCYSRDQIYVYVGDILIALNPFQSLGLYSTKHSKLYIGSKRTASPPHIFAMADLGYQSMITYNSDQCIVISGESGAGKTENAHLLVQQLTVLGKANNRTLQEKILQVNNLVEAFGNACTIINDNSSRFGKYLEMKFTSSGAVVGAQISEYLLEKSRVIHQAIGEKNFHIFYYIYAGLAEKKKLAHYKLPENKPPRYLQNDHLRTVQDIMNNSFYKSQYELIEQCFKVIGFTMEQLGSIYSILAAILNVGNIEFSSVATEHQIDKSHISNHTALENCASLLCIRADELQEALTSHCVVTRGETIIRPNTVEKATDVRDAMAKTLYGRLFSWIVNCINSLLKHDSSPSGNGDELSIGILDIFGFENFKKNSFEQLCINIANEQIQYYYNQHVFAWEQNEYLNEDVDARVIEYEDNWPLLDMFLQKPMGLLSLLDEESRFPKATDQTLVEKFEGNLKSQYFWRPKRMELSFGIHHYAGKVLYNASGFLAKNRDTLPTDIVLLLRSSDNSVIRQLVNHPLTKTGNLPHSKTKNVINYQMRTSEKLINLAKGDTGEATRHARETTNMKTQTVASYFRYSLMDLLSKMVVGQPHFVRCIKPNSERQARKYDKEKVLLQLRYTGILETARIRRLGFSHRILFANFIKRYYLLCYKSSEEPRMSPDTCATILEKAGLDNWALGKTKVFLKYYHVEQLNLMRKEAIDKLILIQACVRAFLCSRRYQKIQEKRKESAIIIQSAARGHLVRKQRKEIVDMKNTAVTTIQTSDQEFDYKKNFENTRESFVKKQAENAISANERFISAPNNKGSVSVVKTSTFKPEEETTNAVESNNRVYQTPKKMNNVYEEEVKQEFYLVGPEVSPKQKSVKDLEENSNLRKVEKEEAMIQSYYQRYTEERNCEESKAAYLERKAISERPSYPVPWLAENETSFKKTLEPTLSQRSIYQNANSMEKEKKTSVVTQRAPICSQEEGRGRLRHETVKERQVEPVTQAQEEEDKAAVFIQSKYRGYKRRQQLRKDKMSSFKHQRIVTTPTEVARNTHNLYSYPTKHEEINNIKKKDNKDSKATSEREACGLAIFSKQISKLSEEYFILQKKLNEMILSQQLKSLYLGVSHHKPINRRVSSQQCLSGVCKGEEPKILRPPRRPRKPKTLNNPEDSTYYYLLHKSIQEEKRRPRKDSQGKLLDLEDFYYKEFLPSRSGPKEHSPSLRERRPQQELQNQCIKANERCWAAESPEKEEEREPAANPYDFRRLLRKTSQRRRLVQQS
T4 sequence (Q13882 whole entry): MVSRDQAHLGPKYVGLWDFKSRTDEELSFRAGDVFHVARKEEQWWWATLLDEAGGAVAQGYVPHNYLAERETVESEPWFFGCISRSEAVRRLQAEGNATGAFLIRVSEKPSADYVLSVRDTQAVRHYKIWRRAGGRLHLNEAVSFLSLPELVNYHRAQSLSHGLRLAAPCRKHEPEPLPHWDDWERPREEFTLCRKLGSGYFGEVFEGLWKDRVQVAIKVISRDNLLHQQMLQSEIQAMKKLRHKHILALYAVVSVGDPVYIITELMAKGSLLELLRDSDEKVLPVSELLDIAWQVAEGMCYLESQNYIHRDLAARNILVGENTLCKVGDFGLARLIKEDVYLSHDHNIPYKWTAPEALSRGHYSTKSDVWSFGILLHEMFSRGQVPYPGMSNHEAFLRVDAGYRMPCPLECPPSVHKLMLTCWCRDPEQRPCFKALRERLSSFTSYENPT
T23 sequence (Q9H1R3 whole entry): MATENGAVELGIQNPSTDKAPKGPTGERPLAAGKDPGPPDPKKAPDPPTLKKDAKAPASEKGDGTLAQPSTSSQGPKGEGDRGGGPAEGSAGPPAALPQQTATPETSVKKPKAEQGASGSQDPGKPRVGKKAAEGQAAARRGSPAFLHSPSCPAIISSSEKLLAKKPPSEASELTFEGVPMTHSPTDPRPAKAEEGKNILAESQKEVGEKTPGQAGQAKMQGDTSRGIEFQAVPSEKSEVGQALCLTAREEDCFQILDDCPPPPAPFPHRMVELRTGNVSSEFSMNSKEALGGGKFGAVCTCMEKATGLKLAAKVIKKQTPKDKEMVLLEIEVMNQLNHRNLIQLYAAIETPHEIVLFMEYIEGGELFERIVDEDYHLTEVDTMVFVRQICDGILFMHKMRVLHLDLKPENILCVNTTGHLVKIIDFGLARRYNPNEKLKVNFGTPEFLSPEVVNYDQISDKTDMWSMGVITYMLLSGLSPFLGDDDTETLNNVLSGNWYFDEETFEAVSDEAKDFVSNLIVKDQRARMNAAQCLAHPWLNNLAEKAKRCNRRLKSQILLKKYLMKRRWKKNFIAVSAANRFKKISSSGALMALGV
T39 sequence (Q13470 whole entry): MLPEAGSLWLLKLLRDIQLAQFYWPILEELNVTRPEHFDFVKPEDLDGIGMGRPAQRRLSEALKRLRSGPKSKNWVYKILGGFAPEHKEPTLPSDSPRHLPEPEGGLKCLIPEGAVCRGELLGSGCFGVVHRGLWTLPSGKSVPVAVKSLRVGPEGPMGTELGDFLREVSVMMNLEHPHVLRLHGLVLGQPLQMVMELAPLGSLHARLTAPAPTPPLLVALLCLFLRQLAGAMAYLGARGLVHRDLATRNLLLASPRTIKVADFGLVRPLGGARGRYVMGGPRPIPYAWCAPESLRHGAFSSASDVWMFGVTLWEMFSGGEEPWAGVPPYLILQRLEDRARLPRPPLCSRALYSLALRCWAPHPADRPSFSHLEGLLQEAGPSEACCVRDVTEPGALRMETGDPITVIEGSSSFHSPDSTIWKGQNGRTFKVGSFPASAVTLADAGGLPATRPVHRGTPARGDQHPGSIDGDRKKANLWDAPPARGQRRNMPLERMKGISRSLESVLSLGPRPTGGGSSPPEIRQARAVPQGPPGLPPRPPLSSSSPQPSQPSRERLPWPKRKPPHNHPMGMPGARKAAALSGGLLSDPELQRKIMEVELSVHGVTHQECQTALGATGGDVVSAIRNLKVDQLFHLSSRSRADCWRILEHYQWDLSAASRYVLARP
T42 sequence (Q99986 whole entry): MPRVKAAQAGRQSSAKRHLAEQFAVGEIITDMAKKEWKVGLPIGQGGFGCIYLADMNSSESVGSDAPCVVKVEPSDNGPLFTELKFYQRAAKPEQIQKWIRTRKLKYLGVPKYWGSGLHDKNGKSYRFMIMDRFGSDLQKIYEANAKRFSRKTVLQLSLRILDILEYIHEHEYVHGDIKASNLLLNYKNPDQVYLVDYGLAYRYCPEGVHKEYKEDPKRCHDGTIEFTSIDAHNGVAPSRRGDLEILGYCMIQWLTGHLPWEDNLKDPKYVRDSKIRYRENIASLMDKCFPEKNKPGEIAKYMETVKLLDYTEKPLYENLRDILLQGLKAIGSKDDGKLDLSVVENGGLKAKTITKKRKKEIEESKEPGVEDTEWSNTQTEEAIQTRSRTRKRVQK

Molecule `Cc1ccc(NC(=O)c2ccc(CN3CCN(C)CC3)c(C(F)(F)F)c2)cc1-c1cnc2sc(N)nc2c1` [6r] has an inhibition at 1 µM (ACK1) of 39.9%, an inhibition at 1 µM (BLK) of 84.8% and an inhibition at 1 µM (BRAF) of 97.4%. The inhibition at 1 µM (BRK) was 37.5%, the inhibition at 1 µM (CAMK2b) was 0% and the inhibition at 1 µM (CDK1/cyclin A) was 3.8%. For the same molecule, the inhibition at 1 µM (DYRK4) was 0%, the inhibition at 1 µM (EPHA2) was 77.4% and the inhibition at 1 µM (EPHB3) was 42.5%. It also gave an inhibition at 1 µM (ERK2/MAPK1) of 13.5%, an inhibition at 1 µM (ERK7/MAPK15) of 4.2% and an inhibition at 1 µM (FAK/PTK2) of 7.8%. For the same molecule, the inhibition at 1 µM (FER) was 0%, the inhibition at 1 µM (FES/FPS) was 39.7% and the inhibition at 1 µM (FGFR3) was 0%. For the same molecule, the inhibition at 1 µM (GRK5) was 5.8%, the inhibition at 1 µM (HIPK1) was 5.2% and the inhibition at 1 µM (IRAK4) was 0%. For the same molecule, the inhibition at 1 µM (LIMK2) was 39.9%, the inhibition at 1 µM (LOK/STK10) was 14% and the inhibition at 1 µM (MARK2/PAR-1Ba) was 0%. The inhibition at 1 µM (MKK7) was 7.3%, the inhibition at 1 µM (MLCK2/MYLK2) was 4.8% and the inhibition at 1 µM (MLK1/MAP3K9) was 0%. The inhibition at 1 µM (MLK2/MAP3K10) was 13.4%, the inhibition at 1 µM (MYLK4) was 4.6% and the inhibition at 1 µM (MYO3A) was 15%. It also gave an inhibition at 1 µM (NEK1) of 2.6%, an inhibition at 1 µM (NEK11) of 18.3% and an inhibition at 1 µM (PHKg1) of 19.6%. The inhibition at 1 µM (PKAcg) was 29.2%, the inhibition at 1 µM (PKCb2) was 12.7% and the inhibition at 1 µM (RSK2) was 32.4%. It also gave an inhibition at 1 µM (SGK1) of 11.6%, an inhibition at 1 µM (SRPK2) of 9% and an inhibition at 1 µM (STK32B/YANK2) of 0%. The inhibition at 1 µM (TESK2) was 15.1%, the inhibition at 1 µM (TIE2/TEK) was 24.4% and the inhibition at 1 µM (TNK1) was 36.2%. For the same molecule, the inhibition at 1 µM (TTBK1) was 9.9%, the inhibition at 1 µM (TYRO3/SKY) was 14.6% and the inhibition at 1 µM (VRK1) was 1.6%.

Reference: PMC9817970 (Cancers, 2022)
